Earlier results, collected in patent publication US7452892B2, “Triazolopyrimidine cannabinoid receptor 1 antagonists” (Bristol-Myers Squibb Company, priority 2005, dated 2008).

Key:
[1] = 16 week trial period
[2] = chronic administration for two weeks

| Structure (SMILES) | body weight in human subjects [1] | body weight [2] |
| --- | --- | --- |
| Cc1c(C(=O)NN2CCCCC2)nn(-c2ccc(Cl)cc2Cl)c1-c1ccc(Cl)cc1 [SR-141716] | dose-dependently reduced body weight |  |
| Cc1c(C(=O)NN2CCCCC2)nn(-c2ccc(Cl)cc2Cl)c1-c1ccc(I)cc1 [AM-251] |  | substantial body weight reduction |
